# Experimental data taken from PubChem BioAssay (NCI).
# Values joined by “and” are separate entries in the source; they are usually repeats but may differ in a detail not shown here. Identical values can stand only once.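 Dose response: 5 concentrations. Exposure: 48 h. Format: 96-well plates. Endpoint: linear interpolation; highest concentration if not reached. The concentration for 50% growth inhibition is given as GI50. Definition used: TGI = concentration required for complete inhibition of growth.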
# System: HOP-62 NSCLC
# Experiment: growth of human tumour cells (NCI), 48 h
Compound,GI50,TGI
Cn1nc(N)c2cc([C@@H]3Nc4ccc5[nH]ncc5c4[C@H]4C5CCC(C5)[C@@H]34)ccc21 (stereo not given in full),0.603 µM,25.5 µM
Cn1cc(CO)c2c1C(=O)C=C(N1CC1)C2=O,< 0.01 µM,< 0.0116 µM
O=C(O)C1C2C=CC(O2)C1C(=O)NCc1ccccn1 (stereo not given),,> 100 µM
CC1=C(C(=O)Nc2ccccc2)C(c2ccccc2)C(C(=O)Nc2ccccc2)=C(C)N1,,> 100 µM
O=C(OC(CNc1cc(=O)n(Cc2ccccc2)c(=O)n1Cc1ccccc1)CN1CCCC1)c1ccccc1 (stereo not given),> 100 µM,> 100 µM
Cc1nn(-c2ccccc2)c2nc(N3CCOCC3)nnc12,,> 100 µM
CCN(CC)CCCC(CNc1ccnc2cc(Cl)ccc12)c1ccc(Cl)cc1 (stereo not given),1.83 µM and 1.64 µM,4.23 µM and 3.73 µM
CCOC(=O)CCCn1c(SC)nc2[nH]cc(-c3ccccc3)c2c1=O,11 µM,40.4 µM
CNC(=O)N(C)N=NCCCl,,> 100 µM
CCOc1ccccc1C=C1c2ccccc2C(=O)c2ccccc21,,36.3 µM
O=C(CCn1[nH]c(=O)c(Cl)c(Cl)c1=O)NO,,> 100 µM
CCN1CCN(C(c2ccc(C(F)(F)F)cc2)c2ccc3cccnc3c2O)CC1 (stereo not given),1.32 µM,13.7 µM
CC(C)=CC/C=C(/C)[C@H]1CC[C@]2(C)[C@@H]1CC[C@@H]1[C@@]3(C)CCCNC(C)(C)[C@@H]3CC[C@]12C,1.9 µM,3.9 µM
COc1ccc(C(C)=O)cc1N1C(=O)C2C(C1=O)C1(c3ccccc3)C(=O)C2(c2ccccc2)C(c2ccc(C)cc2)=C1c1ccc(C)cc1 (stereo not given),> 100 µM,> 100 µM
CN(C)c1nc2ccccc2[nH]1,,> 100 µM
NNC(=S)N/N=C(\CC1OC(=O)c2ccccc21)c1ccccc1O (stereo not given),,> 100 µM

Compound,GI50,TGI
COC(=O)C1=C(O)c2cc(OC)c(OC)cc2C(c2ccc(OC)c(OC)c2)C1 (stereo not given),,> 100 µM
COC1(OC)CC2C(=O)N(Cc3ccccc3)C1C(S(=O)(=O)c1ccccc1)C2S(=O)(=O)c1ccccc1 (stereo not given),,> 100 µM
NC(=Nc1c([N+](=O)[O-])cnc2ccccc12)N1CCOCC1,,> 100 µM
CCN(CC)c1ccc2c(c1)OC(N)=C(C#N)C2c1cc(OC)c2c(c1)OCO2 (stereo not given),0.0602 µM,20.3 µM
N#CC(=C1C=CC(=NO)C=C1)c1ccccc1,6.31 µM,25.2 µM
CCCCCCCCCCCCCC1=NC(C)(C)CN1C(C)C,1.73 µM,3.17 µM
COC(=O)C(=Cc1cc(OC)ccc1OC)C(=O)OC,,64.1 µM
CC(C)c1ccccc1NC(=O)CCc1n[nH]c(=S)o1,,> 100 µM
CC(C)=CCNc1ncnc2c1ncn2C1OC(CO)C(O)C1O (stereo not given),1.3 µM,6.7 µM
CCCCC(C(=O)C(=O)NC1C2CC3CC(C2)CC1C3)C(=O)C(C)C (stereo not given),,> 100 µM
COc1ccc(CN2C(=O)/C(=C\C(=O)c3ccc(OCCN4CCCCC4)cc3)c3ccccc32)cc1,20.2 µM,35.4 µM
COC(=O)c1cc2c(s1)C(=O)c1ccccc1-2,,> 100 µM
CCC(C)n1ncn(-c2ccc(N3CCN(c4ccc(OCC5COC(Cn6cncn6)(c6ccc(Cl)cc6Cl)O5)cc4)CC3)cc2)c1=O (stereo not given),8.97 µM,37 µM
CC(C)CCN1c2nc(Nc3cc(F)c(O)c(F)c3)ncc2N(C)C(=O)C1C (stereo not given),6.66 µM,> 100 µM
NC(=O)NC1C(c2ccccc2)=C1c1ccccc1,,> 100 µM

# System: CAKI-1 renal
# Experiment: growth of human tumour cells (NCI), 48 h
Compound,GI50,TGI
Cn1nc(N)c2cc([C@@H]3Nc4ccc5[nH]ncc5c4[C@H]4C5CCC(C5)[C@@H]34)ccc21 (stereo not given in full),0.334 µM,33.4 µM
Cn1cc(CO)c2c1C(=O)C=C(N1CC1)C2=O,< 0.01 µM,< 0.0125 µM
O=C(O)C1C2C=CC(O2)C1C(=O)NCc1ccccn1 (stereo not given),,> 100 µM
CC1=C(C(=O)Nc2ccccc2)C(c2ccccc2)C(C(=O)Nc2ccccc2)=C(C)N1,,> 100 µM
O=C(OC(CNc1cc(=O)n(Cc2ccccc2)c(=O)n1Cc1ccccc1)CN1CCCC1)c1ccccc1 (stereo not given),> 100 µM,> 100 µM
Cc1nn(-c2ccccc2)c2nc(N3CCOCC3)nnc12,,> 100 µM
CCN(CC)CCCC(CNc1ccnc2cc(Cl)ccc12)c1ccc(Cl)cc1 (stereo not given),1.48 µM and 0.547 µM,3.2 µM and 1.91 µM
CCOC(=O)CCCn1c(SC)nc2[nH]cc(-c3ccccc3)c2c1=O,15.8 µM,45.1 µM
CNC(=O)N(C)N=NCCCl,,> 100 µM
CCOc1ccccc1C=C1c2ccccc2C(=O)c2ccccc21,,6.58 µM
O=C(CCn1[nH]c(=O)c(Cl)c(Cl)c1=O)NO,,> 100 µM
CCN1CCN(C(c2ccc(C(F)(F)F)cc2)c2ccc3cccnc3c2O)CC1 (stereo not given),2.55 µM,9.36 µM
CC(C)=CC/C=C(/C)[C@H]1CC[C@]2(C)[C@@H]1CC[C@@H]1[C@@]3(C)CCCNC(C)(C)[C@@H]3CC[C@]12C,1.85 µM,3.93 µM
COc1ccc(C(C)=O)cc1N1C(=O)C2C(C1=O)C1(c3ccccc3)C(=O)C2(c2ccccc2)C(c2ccc(C)cc2)=C1c1ccc(C)cc1 (stereo not given),17.6 µM,> 100 µM
CN(C)c1nc2ccccc2[nH]1,,> 100 µM
NNC(=S)N/N=C(\CC1OC(=O)c2ccccc21)c1ccccc1O (stereo not given),,> 100 µM

Compound,GI50,TGI
COC(=O)C1=C(O)c2cc(OC)c(OC)cc2C(c2ccc(OC)c(OC)c2)C1 (stereo not given),,> 100 µM
COC1(OC)CC2C(=O)N(Cc3ccccc3)C1C(S(=O)(=O)c1ccccc1)C2S(=O)(=O)c1ccccc1 (stereo not given),,26.9 µM
NC(=Nc1c([N+](=O)[O-])cnc2ccccc12)N1CCOCC1,,> 100 µM
CCN(CC)c1ccc2c(c1)OC(N)=C(C#N)C2c1cc(OC)c2c(c1)OCO2 (stereo not given),0.108 µM,59.1 µM
N#CC(=C1C=CC(=NO)C=C1)c1ccccc1,1.23 µM,11.5 µM
CCCCCCCCCCCCCC1=NC(C)(C)CN1C(C)C,1.36 µM,2.84 µM
COC(=O)C(=Cc1cc(OC)ccc1OC)C(=O)OC,,43.3 µM
CC(C)c1ccccc1NC(=O)CCc1n[nH]c(=S)o1,,> 100 µM
CC(C)=CCNc1ncnc2c1ncn2C1OC(CO)C(O)C1O (stereo not given),0.721 µM,4.74 µM
CCCCC(C(=O)C(=O)NC1C2CC3CC(C2)CC1C3)C(=O)C(C)C (stereo not given),,> 100 µM
COc1ccc(CN2C(=O)/C(=C\C(=O)c3ccc(OCCN4CCCCC4)cc3)c3ccccc32)cc1,5.09 µM,18.1 µM
COC(=O)c1cc2c(s1)C(=O)c1ccccc1-2,,> 100 µM
CCC(C)n1ncn(-c2ccc(N3CCN(c4ccc(OCC5COC(Cn6cncn6)(c6ccc(Cl)cc6Cl)O5)cc4)CC3)cc2)c1=O (stereo not given),2.88 µM,> 100 µM
CC(C)CCN1c2nc(Nc3cc(F)c(O)c(F)c3)ncc2N(C)C(=O)C1C (stereo not given),2.84 µM,> 77.1 µM
NC(=O)NC1C(c2ccccc2)=C1c1ccccc1,,> 100 µM

# System: SK-MEL-28 melanoma
# Experiment: growth of human tumour cells (NCI), 48 h
Compound,GI50,TGI
Cn1nc(N)c2cc([C@@H]3Nc4ccc5[nH]ncc5c4[C@H]4C5CCC(C5)[C@@H]34)ccc21 (stereo not given in full),4.35 µM,29.1 µM
Cn1cc(CO)c2c1C(=O)C=C(N1CC1)C2=O,< 0.0166 µM,0.605 µM
O=C(O)C1C2C=CC(O2)C1C(=O)NCc1ccccn1 (stereo not given),,> 100 µM
CC1=C(C(=O)Nc2ccccc2)C(c2ccccc2)C(C(=O)Nc2ccccc2)=C(C)N1,,> 100 µM
O=C(OC(CNc1cc(=O)n(Cc2ccccc2)c(=O)n1Cc1ccccc1)CN1CCCC1)c1ccccc1 (stereo not given),> 100 µM,> 100 µM
Cc1nn(-c2ccccc2)c2nc(N3CCOCC3)nnc12,,> 100 µM
CCN(CC)CCCC(CNc1ccnc2cc(Cl)ccc12)c1ccc(Cl)cc1 (stereo not given),1.66 µM and 0.537 µM,3.3 µM and 1.09 µM
CCOC(=O)CCCn1c(SC)nc2[nH]cc(-c3ccccc3)c2c1=O,17.6 µM,37.1 µM
CNC(=O)N(C)N=NCCCl,,> 100 µM
CCOc1ccccc1C=C1c2ccccc2C(=O)c2ccccc21,,> 100 µM
O=C(CCn1[nH]c(=O)c(Cl)c(Cl)c1=O)NO,,> 100 µM
CCN1CCN(C(c2ccc(C(F)(F)F)cc2)c2ccc3cccnc3c2O)CC1 (stereo not given),3.68 µM,16.6 µM
CC(C)=CC/C=C(/C)[C@H]1CC[C@]2(C)[C@@H]1CC[C@@H]1[C@@]3(C)CCCNC(C)(C)[C@@H]3CC[C@]12C,2.35 µM,5.67 µM
COc1ccc(C(C)=O)cc1N1C(=O)C2C(C1=O)C1(c3ccccc3)C(=O)C2(c2ccccc2)C(c2ccc(C)cc2)=C1c1ccc(C)cc1 (stereo not given),> 100 µM,> 100 µM
CN(C)c1nc2ccccc2[nH]1,,> 100 µM
